Source: patent publication US10975060B2, “High relaxivity gadolinium chelate compounds for use in magnetic resonance imaging” (BAYER PHARMA AKTIENGESELLSCHAFT, priority 2016, dated 2021)
“Also recorded” adds a separate entry of the source.

Experiments:
[1] = Contrast-enhanced magnetic resonance angiography (CE-MRA) at 1.5 T, intraindividual comparison; type: in vivo, New Zealand white rabbits; conditions: rabbits
Protocol: Reference compound 1 (Gadovist®), as an approved representative of the Gadolinium-based MRI contrast agents, was used in both dose protocols (100 μmol Gd/kg bw and 25 μmol Gd/kg bw) and compared to example compound 6 (25 μmol Gd/kg bw).
The contrast-enhanced magnetic resonance angiography study was performed at a clinical 1.5 T Scanner (Magnetom Avanto Fit, Siemens Healthcare, Erlangen, Germany). For optimal signal exploitation, a spine in combination with a body-flex coil was used for the data acquisition. The study was performed on male New Zealand white rabbits (weight 3.6-3.9 kg, n=4, Charles River Kisslegg). The animals received all 3 contrast protocols within one imaging session. The order of the contrast protocols was randomized between the animals.
All animals are initially anesthetized using a body weight-adjusted intramuscular injection of a mixture (1+2) of xylazine hydrochloride (20 mg/mL, Rompun 2%, Bayer Vital GmbH, Leverkusen, Germany) and ketamine hydrochloride (100 mg/mL, Ketavet, Pfizer, Pharmacia GmbH, Berlin, Germany) using 1 mL/kg body weight. The continuous anesthesia of the intubated animals (endotracheal tube, Rueschelit Super Safe Clear, cuff 3.0 mm, Willy Ruesch A G, Kernen, Germany) is achieved by the intravenous injection of 0.9 mg propofol per kilogram per hour (10 mg/mL, Propofol-Lipuro 1%, B. Braun Melsungen A G, Melsungen, Germany). The continuous intravenous injection is performed using a MR infusion system (Continuum MR Infusion System, Medrad Europe B. V., A E Beek, Germany). The tracheal respiration (SV 900C, Maquet, Rastatt, Germany) is performed with 55% oxygen, forty breaths per minute, and a breathing volume of 4 mL per kilogram body weight per minute.
Based on a localizer MRI sequence oriented in coronal, axial, and sagittal directions the anatomic course of the aorta is acquired. A small intravenous test bolus (0.2 mL, Reference compound 1 followed by 1.3 mL saline) was administered to determine the time to peak interval (descending aorta) using a test bolus sequence. The MRA delay time between the start of the contrast injection and the start of image acquisition was calculated by subtracting the time to k-space center from the time to peak interval. For MRA a 3D FLASH sequence (TR=3.3 ms, TE=1.2 ms, flip=25°) was acquired before and after injection of the contrast agent considering the delay time. Both measurements were performed within expiratory breath hold. The time interval for the intraindividual comparison between the different contrast agent applications was twenty to thirty minutes.
Quantitative image evaluation was performed on the subtraction images (post contrast—baseline). […]

[2] = Relaxivity measurements at 1.4 T (MiniSpec mq60, 60 MHz, 37 °C) in water and human plasma; type: physicochemical; conditions: 1.41 T, normalized to Gd
Method in brief: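 T1 by inversion recovery and T2 by CPMG, relaxation delay ≥5×T1, at three Gd concentrations between 0.05 and 2 mM in water or fresh citrated human plasma. Relaxivities r1, r2 taken as slopes of relaxation rate versus Gd concentration, verified by ICP-MS.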

[3] = Dynamic CT diffusion phantom study (dialysis cassette in fetal bovine serum); type: physicochemical; conditions: dialysis cassette 20,000 MWCO, 20 mmol Gd/L, CT signal over 30 h
Method in brief: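 Contrast agent at 20 mmol Gd/L in a 20 kDa MWCO dialysis cassette was placed in fetal bovine serum. Diffusion was followed by clinical CT at 100 kV and 104 mA at time points from 0 min to 30 h. Regions of interest were drawn on one central 2.4 mm slice per time point.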

[4] = Pharmacokinetic parameters of blood plasma levels after i.v. bolus in male rats (three compartment model); type: in vivo, rats (Han-Wistar)
Protocol: Pharmacokinetic parameters of Example 6 were determined in male rats (Han-Wistar, 235-270 g, n=3). The compound was administered as a sterile aqueous solution (53.8 mmol Gd/L) as a bolus in the tail vein of the animals. The dose was 0.1 mmol Gd/kg. Blood was sampled 1, 3, 5, 10, 15, 30, 60, 90, 120, 240, 360, 480, and 1440 min post injection and the Gd concentration was determined by Inductively Coupled Plasma Mass Spectrometry (ICP-MS Agilent 7500a, Waldbronn, Germany). The blood level was converted to plasma concentrations by division by 0.625 (plasma fraction of rat blood, assuming strictly extracellular distribution). As a control, 3 animals (Han-Wistar, 248-289 g), were treated in the same way with Reference Compound 1 (Gadovist®), a low molecular weight contrast agent.
The fit of the obtained data to a three compartment model (Phoenix-WinNonlin) yielded the pharmacokinetic parameters which are shown in Table 3.

[5] = Water solubility (exploratory, 10 mM Tris-HCl, 20 °C); type: physicochemical; conditions: water (10 mM Tris-HCl buffer), pH 7.4
Protocol: The exploratory water solubilities of the compounds were determined at room temperature (20° C.) in 0.5 mL buffer solution (10 mM Tris-HCl) in the microcentrifuge tubes (Eppendorf, 2.0 mL safe-lock caps). The solid compounds were added stepwise to the buffer solution. The suspension was mixed using a shaker (Heidolph Reax 2000) and treated 5 min in an ultrasound bath (Bandelin, Sonorex Super RK255H).

[6] = subtraction images, carotid artery, aorta, renal arteries
[7] = i.v. bolus 0.1 mmol Gd/kg, mean, n=3

With CC(C)CN(CC(=O)NCC(CNC(=O)CN(CC(C)C)C(=O)CN1CCN(CC(=O)[O-])CCN(CC(=O)[O-])CCN(CC(=O)[O-])CC1)(CNC(=O)CN(CC(C)C)C(=O)CN1CCN(CC(=O)[O-])CCN(CC(=O)[O-])CCN(CC(=O)[O-])CC1)CNC(=O)CN(CC(C)C)C(=O)CN1CCN(CC(=O)[O-])CCN(CC(=O)[O-])CCN(CC(=O)[O-])CC1)C(=O)CN1CCN(CC(=O)[O-])CCN(CC(=O)[O-])CCN(CC(=O)[O-])CC1.[Gd+3].[Gd+3].[Gd+3].[Gd+3] [Example 6, Tetragadolinium {4,10-bis(carboxylatomethyl)-7-[3-isobutyl-8,8-bis({[(isobutyl{[4,7,10-tris(carboxylatomethyl)-1,4,7,10-tetraazacyclododecan-1-yl]acetyl}amino)acetyl]-amino}methyl)-15-methyl-2,5,11-trioxo-13-{[4,7,10-tris(carboxylatomethyl)-1,4,7,10-tetraazacyclododecan-1-yl]acetyl}-3,6,10,13-tetraazahexadec-1-yl]-1,4,7,10-tetraaza-cyclododecan-1-yl}acetate] the “vascular contrast (MR-angiograms, qualitative) at 25 μmol/kg compared to reference compound 1 at 100 μmol/kg” value ([1]; example compound 6 at 25 μmol Gd/kg bw) was “No qualitative difference”, the “signal enhancement at vascular regions, 25 μmol/kg compared to reference compound 1 at reduced (identical) dose (25 μmol/kg)” value [1, 6] was “significantly (p<0.001) higher” and the “signal enhancement at vascular regions, 25 μmol/kg compared to reference compound 1 at standard dose (100 μmol/kg)” value [1, 6] was “No significant difference; also recorded: similar”. For the same compound, the r1 human plasma ([2]; human plasma) was 14.1 L/mmol/s, the r1 water ([2]; water) was 11.6 L/mmol/s and the “Diffusion half-live (20 kDa)” value [3] was 15.0 h. The “pharmacokinetic compared to that of the reference compound 1” value ([4]; 0.1 mmol Gd/kg i.v.) was “very similar”, the “AUC∞ Area under the curve (to infinity)” value [4, 7] was 10801 µmol·min/L and the “MRT Mean residence time” value [4, 7] was 40.7 min. For the same compound, the “V1 + V2 Volume, compartments V1 + V2” value [4, 7] was 0.14 L/kg, the “V2 Volume, compartment V2” value [4, 7] was 0.12 L/kg and the “Vd, ss Volume of distribution at steady state” value [4, 7] was 0.27 L/kg. The “t½ α Half-life, compartment V1” value [4, 7] was 2.45 min, the “t½ β Half-life, compartment V2” value [4, 7] was 22.4 min and the “t½ γ Half-life, compartment V3” value [4, 7] was 1041 min. It also gave a Solubility [5] of over 1000 mg/100 mL.
